Measured values: a melting point compilation (Tetko et al.; mined from patent text by program, amines drawn as free bases though some values may be those of a salt)

| Structure (SMILES) | melting point |
| --- | --- |
| CN1C(=O)C(c2ccc(OC(F)F)cc2)(c2ccc(F)c(CF)c2)N=C1N (stereo unspecified) | 70 to 73 °C |
| O=c1[nH]c2cccc3c2n1CCC3 | 216 °C |
| CCc1cc2c(ccc(=O)n2Cc2ccc(Oc3ccccc3CC(=O)O)cc2)c(CC)n1 | 211 to 215 °C |
| C[C@H](Cn1cccn1)n1cnc2cc3c(=O)n([C@H](C)Cn4cc(Cl)cn4)cnc3cc2c1=O | 231 to 232 °C |
| O=C(NN=Cc1ccc(Cl)cc1)c1[nH]c2ccccc2c1Cc1ccccc1 | 221 to 222 °C |
| Cc1c(N2CC(O)C2)c(F)cc2c(=O)c(C(=O)O)cn(C3CC3)c12 | 260 to 262 °C |
| COc1ccccc1Nc1nc2c(-c3ccc(C(F)(F)F)cc3)cccn2n1 | 184 to 186 °C |
| Cc1ccc(NCCC(N)=S)c(C)c1 | 104 to 105 °C |
| Cc1onc(OC2CN3CCC2CC3)c1Cl (stereo unspecified) | 37 to 38 °C |
| O=C(Nc1ccc(Cl)c(-c2ccnc3c(C(=O)c4cccs4)cnn23)c1)c1ccccc1 | 194 to 195 °C |
| CCOC(=O)CCc1cn(Cc2ccc(OCc3cn4c(-c5ccccc5)cccc4n3)cc2)nc1OCC | 104 to 105 °C |
| Cc1cccc(C)c1NC(=O)N(Cc1ccccc1)CC1(c2ccccc2)CCCC1 | 200 to 202 °C |
| COc1ccccc1Cc1c(Cl)ncnc1Cl | 95 to 96 °C |
| COC(=O)CSc1cc(NC(=S)N2CCCN2)c(F)cc1Cl | 137 to 141 °C |
| CC(=O)NCCCCc1ccc(C(=O)CC(C)C#N)cc1 (stereo unspecified) | 89 to 90 °C |
| COc1cc(CNC(=O)c2oc(=O)c3ncccc3c2-c2ccc(C)cc2)cc(OC)c1OC | 195 to 196 °C |
| Cc1ccc2cc(-c3cccc4ccccc34)nc(N3CCN(C)CC3)c2c1 | 150 °C |
| Cc1cc2c(c3c1NC(=O)C(C)(C)C3)OC(CBr)C2C (stereo unspecified) | 192 to 193 °C |
| O=C(c1ccc([N+](=O)[O-])o1)N1CCN(CC(O)COc2cccc3[nH]c4ccccc4c23)CC1 (stereo unspecified) | 178 to 181 °C |
| COc1c(F)cc(-c2c(-c3ccc(S(C)(=O)=O)cc3)cnn(-c3ccc(F)c(Cl)c3)c2=O)cc1F | 195 to 197 °C |
| COc1cc(Nc2nccc(-c3ccc(N4CCN[C@@H](C)C4)nc3)n2)cc(OC)c1OC | 139 to 140 °C |
| BrCc1cccc(OCCCCOc2ccccc2)c1 | 47 to 49 °C |
| CC(C)c1cccc2c1O[C@@H](C(C)C)C(=O)N2 | 151 to 152 °C |
| C[Si](C)(ON(Cc1ccccc1)Cc1ccccc1)ON(Cc1ccccc1)Cc1ccccc1 | 50 to 53 °C |
| N#CC1(N2C(=O)c3cccc(Cl)c3C2=O)CCCCC1 | 115 to 116 °C |
| CC(C)[C@H]1CC[C@H](C(=O)N[C@H](Cc2ccc(OCc3ccc(C(F)(F)F)cc3)cc2)C(=O)O)CC1 | 171 to 172 °C |

| Structure (SMILES) | melting point |
| --- | --- |
| O=C(Nc1ccc(-n2nc(C(F)(F)F)cc2C2CC2)c(F)c1)c1c(F)cccc1F | 193 to 196 °C |
| CCOC(=O)/C=C/C1N(C(C)C)C(=O)c2ccccc2C1(O)c1ccc(F)cc1 (stereo unspecified) | 220 to 221 °C |
| COc1cccc(C=O)c1OS(=O)(=O)c1ccccc1 | 120 to 122 °C |
| CC(=O)Nc1nc(CCc2ccc(CC(=O)NC(=N)N)s2)cs1 | 188 to 190 °C |
| CCNc1c(C(=O)OCC)c(C)nc2c1nnn2CC | 60 to 61 °C |
| O=c1cc2c(nn1-c1ccc(Cl)cc1)-c1cc(Br)sc1SCC2 | 148 to 151 °C |
| CCOC(=O)C(C)(C(=O)OCC)c1ccc(N)c(C(C(=O)OC)C(=O)OC)c1 | 91 to 92 °C |
| O=C1NN=C(c2ccc3c(c2)C2(CCCS2)C(=O)N3)CS1 (stereo unspecified) | 284 °C |
| CC(=O)N[C@@H]1c2cnccc2OC(C)(C)[C@H]1O (relative stereo) | 208 to 210 °C |
| CCN(CC)C(=O)c1ccc(C(=C2CCNCC2)c2cccc3cccnc23)cc1 | > 170 °C |
| O=C1NCCc2c(O)cccc21 | 195 to 198 °C |
| CC(C)C(NC(=O)N(C)Cc1ccccn1)C(=O)NC(Cc1ccccc1)C(O)C(Cc1ccccc1)NC(=O)C(NC(=O)N(C)Cc1ccccn1)C(C)C (stereo unspecified) | 70 to 72 °C |
| CC(=O)N1c2ccccc2Sc2c(O)c(O)c3ccccc3c21 | 258 to 260 °C |
| CCOC(=O)c1cc(-n2c(=O)c(C)c(C)n(C)c2=O)ccc1Cl | 159 to 161 °C |
| O=C(O)c1ccc(C(=O)/C=C/c2ccc(-c3cncnc3)cc2)cc1 | > 260 °C |
| C=CC(=O)OCCCNC(=O)CCc1cc(-n2nc3ccccc3n2)c(O)c(C(C)(C)C)c1 | 87 to 89 °C |
| COC1CCN(c2nnc(-c3ccc(C)cc3)c(-c3ccc(C)cc3)n2)CC1 | 120 to 121 °C |
| O=C(c1ccccc1)c1c[nH]c2ncnc(Nc3cccc(CO)c3)c12 | 273 to 275 °C |
| COc1ncc(C=O)cc1Br | 94 to 95 °C |
| COc1ccc(-c2cc3cc(OC)cc(CC(F)(F)F)c3o2)cc1 | 113 to 115 °C |
| O=C1C(Br)CCN1c1cccc(C(F)(F)F)c1 (stereo unspecified) | 79 to 83 °C |
| Cc1cc(C)cc(C(Cl)=NNc2ccccc2)c1 | 47.5 to 48.5 °C |
| Cc1[nH]c(=S)n(Nc2cccc(Cl)c2)c1-c1cccc(Cl)c1 | 204 °C |
| C=CCONC(=O)c1nc(-c2ccc(Cl)c(OC)c2F)cc(N)c1Cl | 169 to 172 °C |
| O=C1NC(=O)C(Nc2ccc(CCNCC(O)COc3ccc4ccccc4c3)cc2)S1 (stereo unspecified) | 90 to 91 °C |
| CC(=O)NCCn1c(C)ccc1C | 106 to 107 °C |

| Structure (SMILES) | melting point |
| --- | --- |
| C=CCOc1ccc2ccc(NC(=O)c3ccc(OC)cc3)nc2n1 | 108 °C |
| CC(C)(CCC#N)c1ccc(C(=O)Nc2cn3cc(C(F)(F)F)ccc3n2)cc1 | 233 to 234 °C |
| CCC1(CCC(=O)OC(C)(C)C)CCCN2CCc3c([nH]c4ccccc34)C21 (stereo unspecified) | 194 to 195 °C |
| O=C(CSc1ccccc1)Nc1ccccc1C(=O)O | 166 to 167 °C |
| Cn1ncc(/C=C/C(=O)Nc2ccc(C(=O)O)cc2)c1-c1ccc(F)cc1 | 291 to 292 °C |
| CSc1ccc(-c2csc3ccc(C(=O)NN)cc23)cc1 | 195 to 196 °C |
| O=C(NCCc1ccccn1)c1ccccc1-c1ccccc1CNS(=O)(=O)c1ccc(F)cc1 | 130 °C |
| COc1ccnc(CO)c1Cl | 103 to 105 °C |
| c1ccc(Sc2c[nH]c3ncccc23)cc1 | 188 to 189 °C |
| CC(C(N)=O)c1ccc2c(c1)C(=O)Cc1cc(F)ccc1S2 (stereo unspecified) | 224 to 225 °C |
| Cc1ccc(C(=O)c2cccc(C(C)C#N)c2)cc1 (stereo unspecified) | 52 to 55 °C |
| O=c1nc(N(Cc2ccccc2)c2ccccc2)sc2ncccc12 | 137 to 138 °C |
| CCc1nc(N)nc(N)c1CCCc1cc(Cl)c(Cl)cc1Cl | 168 to 182 °C |
| Clc1cc(Cl)c2c(c1)CCC(c1ccccc1)O2 (stereo unspecified) | 74 to 76 °C |
| COc1ccc(Cc2ccc(C(=O)N(C3CCCC3)C3CCCC3)cc2)cc1OC | 138 to 142 °C |
| CC12CCC(CN([Si](C)(C)C)S(=O)(=O)C1)C2(C)C (single isomer, unassigned; (-)) | 63 to 73 °C |
| C=C1C(=O)c2cc(C)ccc2OC1c1ccccc1 (stereo unspecified) | 57 to 63 °C |
| CCCCCCCCCCCCCCC1CC1C(=O)O (stereo unspecified) | 62 to 64 °C |
| CC1CCCN(C(=O)c2ccc([N+](=O)[O-])cc2)C1 (stereo unspecified) | 70.2 to 71.3 °C |
| CCc1cc(C(=O)c2ccccc2Cl)c(-n2c(C)nnc2CNC(=O)c2ccccc2)s1 | 160 to 161 °C |
| CN(C)CCNC(=O)c1cc(-c2cccc(Cl)c2)c2cc(C(c3ccc(Cl)cc3)c3cncn3C)ccc2n1 (stereo unspecified) | 184 °C |
| OCCN1CCC(=C2c3sccc3CCn3ccnc32)CC1 | 155 °C |
| COc1cc2c(cc1Nc1ncc(Cl)c(N[C@H]3[C@@H](C(N)=O)[C@@H]4C=C[C@H]3C4)n1)NCCN(CC1CC1)C2 | 149 to 151 °C |
| O=C1c2cc([N+](=O)[O-])ccc2CCC1Br (stereo unspecified) | 94 to 96 °C |
| Nc1c([N+](=O)[O-])nc(Cl)c2nncn12 | 220 °C |
| CCCn1c(=O)c2nc(C(CC)c3ccc(OCC(=O)NCCN)cc3)[nH]c2n(CCC)c1=O (stereo unspecified) | 139 to 140 °C |

| Structure (SMILES) | melting point |
| --- | --- |
| CCOC(=O)c1c(CCCCn2cncn2)nc2sc3cnccc3c2c1-c1ccc(OC)c(OC)c1 | 118 to 119 °C |
| Nc1nc2c(s1)CCN(CC1=Cc3ccccc3C1)CC2 | 134 to 138 °C |
| CCOC(=O)CCCn1cc(C(=O)O)c2nc3c(C)cccc3cc2c1=O | 186 to 188 °C |
| Oc1cccc2c1CC(N1CCN(c3ncccn3)CC1)CC2 (stereo unspecified) | > 300 °C |
| CC1(C)CC(=O)C(Cc2ccc(Cl)cc2)C(=O)C1 | 188 to 190 °C |
| Cn1nc(C#Cc2ccccc2)ccc1=O | 118 to 120 °C |
| CCOC(=O)NNC=Nc1nc(-c2ccc(C3CCCCC3)cc2)cs1 | 188 to 189 °C |
| O=C1c2ccc(Cl)cc2CN2C(=NO)CCC12 (stereo unspecified) | 249 to 252 °C |
| NC(=O)c1coc2c1C(=O)CC(c1ccccc1)C2 (stereo unspecified) | 252 to 253 °C |
| C[C@H]1N(C(=O)c2ccc(C(F)(F)F)cc2F)CC(=O)O[C@@]1(Cn1cncn1)c1ccc(F)cc1F (relative stereo) | 191 to 192 °C |
| O=C1CSc2ccc(S(=O)(=O)Cc3c(Cl)cccc3Cl)cc2N1 | 244 to 246 °C |
| Cc1ccc(-c2nccc3c(CCl)cccc23)cc1 | 120 °C |
| CCOC(=O)Nc1c(OC)cc(Cc2cnc(N)nc2N)cc1OC | 192 to 193 °C |
| O=C(O)CCOc1cccc2c1Cc1sc(S(=O)(=O)CCC(c3ccccc3)c3ccccc3)nc1-2 | 215 to 218 °C |
| COc1ccc(O)c(C2(CO)C(=O)N(Cc3ccc(C(F)(F)F)o3)c3cccc(Cl)c32)n1 (stereo unspecified) | 191 to 193 °C |
| Cc1cc(=O)[nH]c(=O)n1C1OC(CO)C(O)C1O (stereo unspecified) | 175 to 177 °C |
| O=c1[nH]c2ccccc2c(=O)n1C1CCN(Cc2ccccc2)CC1 | 223 °C |
| CC(=O)Nc1ccc(C(=O)O)c(OC(C)=O)c1 | 191 to 193 °C |
| Cc1[nH]cnc1CSCCNC1=C([N+](=O)[O-])CN(Cc2ccccc2)CN1 | 177 to 180 °C |
| CC(C)(C)CC(C)(C)NC(=O)CCON(Cc1ccccc1)Cc1ccccc1 | 96 to 98 °C |
| Nc1cc(N2CCc3ccccc3C2)ccn1 | 160 to 161 °C |
| Oc1nc(-c2ccc(F)cc2)sc1-c1ccccc1 | 231 to 233 °C |
| N#Cc1ccccc1C=CCN1CCc2nc(N)sc2CC1 | 140 to 144 °C |
